# Test results published in patent US20260078120A1, “SUBSTITUTED PYRIDOPYRIMIDINONES” (MIRATI THERAPEUTICS, INC., priority 2022, published 2026).
# Like-named read-outs stand apart in the source and are kept apart here.
# Experiments:
# [1] = test system: T47D (PI3Kα H1047R mutant) cells; assay: CellTiter-Glo 2.0 luminescent cell viability assay, 72 hours, T47D cells; type: cell-based; conditions: T47D (PI3Kα H1047R mutant) cells, CellTiter-Glo, approximately 72 hours, read-out: T47D (H1047R mutant) Viability IC50
# Outline: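 Viability was measured by CellTiter-Glo 2.0 luminescence after approximately 72 h of compound exposure at 37° C. Plating was 1000 cells per well the day before dosing, with ten 1:4 dilutions from a 10 µM top concentration. Values as percent of vehicle were fitted by variable-slope log(inhibitor) regression to give IC50.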
# [2] = test system: SKBR3 (PI3Kα wild type) cells; assay: CellTiter-Glo 2.0 luminescent cell viability assay, 72 hours, SKBR3 cells; type: cell-based; conditions: SKBR3 (PI3Kα wild type) cells, CellTiter-Glo, approximately 72 hours, read-out: SKBR3 (WT) Viability IC50
# Outline: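 Viability measured via CTG luminescence following roughly 72 hours of compound exposure at 37° C. Dosing used a 10 um starting concentration diluted 1:4 over 10 points; percent-of-vehicle data fitted with a variable-slope four-parameter model for IC50.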
SMILES,"IC50 ([1]; Homo sapiens, T47D, 72 h) [nM]","IC50 ([2]; Homo sapiens, SK-BR-3, 72 h) [nM]",IC50 [1] [nM],IC50 [2] [nM]
"Cc1cc([C@@H](C)Nc2ccccc2C(=O)O)c2nc(N3C4CC3CN(c3ccc(C#N)cc3)C4)c(C#N)c(=O)n2c1 [Example 11-179, 2-(((1R)-1-(3-cyano-2-(3-(4-cyanophenyl)-3,6-diazabicyclo[3.1.1]heptan-6-yl)-7-methyl-4-oxo-4H-pyrido[1,2-a]pyrimidin-9-yl)ethyl)amino)benzoic acid]",1530,> 10000,–,–
"Cc1cc([C@@H](C)Nc2ccccc2C(=O)O)c2nc(N3C4CNCC3C4)c(C)c(=O)n2c1 [Example 11-180, 2-(((1R)-1-(2-(3,6-diazabicyclo[3.1.1]heptan-6-yl)-3,7-dimethyl-4-oxo-4H-pyrido[1,2-a]pyrimidin-9-yl)ethyl)amino)benzoic acid]",> 10000,> 10000,–,–
"Cc1cc([C@@H](C)Nc2ccccc2C(=O)O)c2nc(N3C4CC3CN(c3ccc(C#N)cc3)C4)c(C)c(=O)n2c1 [Example 11-181, 2-(((1R)-1-(2-(3-(4-cyanophenyl)-3,6-diazabicyclo[3.1.1]heptan-6-yl)-3,7-dimethyl-4-oxo-4H-pyrido[1,2-a]pyrimidin-9-yl)ethyl)amino)benzoic acid]",> 10000,> 10000,–,–
"Cc1cc([C@@H](C)Nc2ccccc2C(=O)O)c2nc(N3C4CCC3CN(c3ccc(C#N)cc3)C4)c(C#N)c(=O)n2c1 [Example 11-182, 2-(((1R)-1-(3-cyano-2-(3-(4-cyanophenyl)-3,8-diazabicyclo[3.2.1]octan-8-yl)-7-methyl-4-oxo-4H-pyrido[1,2-a]pyrimidin-9-yl)ethyl)amino)benzoic acid]",238,> 10000,–,–
"Cc1cc([C@@H](C)Nc2ccccc2C(=O)O)c2nc(N3C4CCC3CN(c3ccc(C#N)cc3)C4)c(C)c(=O)n2c1 [Example 11-183, 2-(((1R)-1-(2-(3-(4-cyanophenyl)-3,8-diazabicyclo[3.2.1]octan-8-yl)-3,7-dimethyl-4-oxo-4H-pyrido[1,2-a]pyrimidin-9-yl)ethyl)amino)benzoic acid]",197,> 10000,–,–
"Cc1cc([C@@H](C)Nc2ccccc2C(=O)O)c2nc(N3CCN(c4cn(C)nc4C#N)CC3)c(C#N)c(=O)n2c1 [Example 11-184, (R)-2-((1-(3-cyano-2-(4-(3-cyano-1-methyl-1H-pyrazol-4-yl)piperazin-1-yl)-7-methyl-4-oxo-4H-pyrido[1,2-a]pyrimidin-9-yl)ethyl)amino)benzoic acid]",370,> 10000,–,–
"Cc1cc([C@@H](C)Nc2ccccc2C(=O)O)c2nc(N3CCN(c4cn(C)nc4C#N)CC3)c(C)c(=O)n2c1 [Example 11-185, (R)-2-((1-(2-(4-(3-cyano-1-methyl-1H-pyrazol-4-yl)piperazin-1-yl)-3,7-dimethyl-4-oxo-4H-pyrido[1,2-a]pyrimidin-9-yl)ethyl)amino)benzoic acid]",123,> 10000,–,–
"Cc1cc([C@@H](C)Nc2ccccc2C(=O)O)c2nc(N3CCN(C4CCOCC4)CC3)c(C#N)c(=O)n2c1 [Example 11-186, (R)-2-((1-(3-cyano-7-methyl-4-oxo-2-(4-(tetrahydro-2H-pyran-4-yl)piperazin-1-yl)-4H-pyrido[1,2-a]pyrimidin-9-yl)ethyl)amino)benzoic acid]",606,> 10000,–,–
"Cc1cc([C@@H](C)Nc2ccccc2C(=O)O)c2nc(N3CCN(C4CCOCC4)CC3)c(C)c(=O)n2c1 [Example 11-187, (R)-2-((1-(3,7-dimethyl-4-oxo-2-(4-(tetrahydro-2H-pyran-4-yl)piperazin-1-yl)-4H-pyrido[1,2-a]pyrimidin-9-yl)ethyl)amino)benzoic acid]",406,> 10000,–,–
"Cc1cc([C@@H](C)Nc2ccccc2C(=O)O)c2nc(N3Cc4cc(F)c(F)cc4C3)c(C)c(=O)n2c1 [Example 11-188, (R)-2-((1-(2-(5,6-difluoroisoindolin-2-yl)-3,7-dimethyl-4-oxo-4H-pyrido[1,2-a]pyrimidin-9-yl)ethyl)amino)benzoic acid]",–,–,152,> 10000
"Cc1cc([C@@H](C)Nc2ccccc2C(=O)O)c2nc(N3C4CCC3CC(F)(F)C4)c(C)c(=O)n2c1 [Example 11-189, 2-(((1R)-1-(2-(3,3-difluoro-8-azabicyclo[3.2.1]octan-8-yl)-3,7-dimethyl-4-oxo-4H-pyrido[1,2-a]pyrimidin-9-yl)ethyl)amino)benzoic acid]",261,> 10000,–,–
"Cc1cc([C@@H](C)Nc2ccccc2C(=O)O)c2nc(N3CC4(CN(c5ccc(C#N)cc5)C4)C3)c(C#N)c(=O)n2c1 [Example 11-190, (R)-2-((1-(3-cyano-2-(6-(4-cyanophenyl)-2,6-diazaspiro[3.3]heptan-2-yl)-7-methyl-4-oxo-4H-pyrido[1,2-a]pyrimidin-9-yl)ethyl)amino)benzoic acid]",1110,> 10000,–,–
"Cc1cc([C@@H](C)Nc2ccccc2C(=O)O)c2nc(N3CC4(CN(c5ccc(C#N)cc5)C4)C3)c(C)c(=O)n2c1 [Example 11-191, (R)-2-((1-(2-(6-(4-cyanophenyl)-2,6-diazaspiro[3.3]heptan-2-yl)-3,7-dimethyl-4-oxo-4H-pyrido[1,2-a]pyrimidin-9-yl)ethyl)amino)benzoic acid]",1060,> 10000,–,–
"Cc1cc([C@@H](C)Nc2ccccc2C(=O)O)c2nc(NC[C@@H]3CCOC3)c(C#N)c(=O)n2c1 [Example 11-192, 2-(((R)-1-(3-cyano-7-methyl-4-oxo-2-((((S)-tetrahydrofuran-3-yl)methyl)amino)-4H-pyrido[1,2-a]pyrimidin-9-yl)ethyl)amino)benzoic acid]",2440,> 10000,–,–
"Cc1cc([C@@H](C)Nc2ccccc2C(=O)O)c2nc(NC[C@H]3CCOC3)c(C#N)c(=O)n2c1 [Example 11-193, 2-(((R)-1-(3-cyano-7-methyl-4-oxo-2-((((R)-tetrahydrofuran-3-yl)methyl)amino)-4H-pyrido[1,2-a]pyrimidin-9-yl)ethyl)amino)benzoic acid]",1200,> 10000,–,–
"Cc1cc([C@@H](C)Nc2ccccc2C(=O)O)c2nc(NCC3CCOC3)c(C#N)c(=O)n2c1 (stereo partly drawn) [Example 11-194, 2-(((1R)-1-(3-cyano-7-methyl-4-oxo-2-(((tetrahydrofuran-3-yl)methyl)amino)-4H-pyrido[1,2-a]pyrimidin-9-yl)ethyl)amino)benzoic acid]",590,> 10000,–,–
"Cc1cc([C@@H](C)Nc2ccccc2C(=O)O)c2nc(NC[C@@H]3CCOC3)c(C)c(=O)n2c1 [Example 11-195, 2-(((R)-1-(3,7-dimethyl-4-oxo-2-((((S)-tetrahydrofuran-3-yl)methyl)amino)-4H-pyrido[1,2-a]pyrimidin-9-yl)ethyl)amino)benzoic acid]",383,> 10000,–,–
"Cc1cc([C@@H](C)Nc2ccccc2C(=O)O)c2nc(NC[C@H]3CCOC3)c(C)c(=O)n2c1 [Example 11-196, 2-(((R)-1-(3,7-dimethyl-4-oxo-2-((((R)-tetrahydrofuran-3-yl)methyl)amino)-4H-pyrido[1,2-a]pyrimidin-9-yl)ethyl)amino)benzoic acid]",646,> 10000,–,–
"Cc1cc([C@@H](C)Nc2ccccc2C(=O)O)c2nc(NCC3CCOC3)c(C)c(=O)n2c1 (stereo partly drawn) [Example 11-197, 2-(((1R)-1-(3,7-dimethyl-4-oxo-2-(((tetrahydrofuran-3-yl)methyl)amino)-4H-pyrido[1,2-a]pyrimidin-9-yl)ethyl)amino)benzoic acid]",1290,> 10000,–,–
"Cc1cc([C@@H](C)Nc2ccccc2C(=O)O)c2nc(NCC3CC(F)(F)C3)c(C#N)c(=O)n2c1 [Example 11-198, (R)-2-((1-(3-cyano-2-(((3,3-difluorocyclobutyl)methyl)amino)-7-methyl-4-oxo-4H-pyrido[1,2-a]pyrimidin-9-yl)ethyl)amino)benzoic acid]",232,> 10000,–,–
"Cc1cc([C@@H](C)Nc2ccccc2C(=O)O)c2nc(NCC3CC(F)(F)C3)c(C)c(=O)n2c1 [Example 11-199, (R)-2-((1-(2-(((3,3-difluorocyclobutyl)methyl)amino)-3,7-dimethyl-4-oxo-4H-pyrido[1,2-a]pyrimidin-9-yl)ethyl)amino)benzoic acid]",498,> 10000,–,–
"Cc1cc([C@@H](C)Nc2ccccc2C(=O)O)c2nc(N3CC4(CCC4(F)F)C3)c(C#N)c(=O)n2c1 [Example 11-200, (R)-2-((1-(3-cyano-2-(5,5-difluoro-2-azaspiro[3.3]heptan-2-yl)-7-methyl-4-oxo-4H-pyrido[1,2-a]pyrimidin-9-yl)ethyl)amino)benzoic acid]",129,> 10000,–,–
"Cc1cc([C@@H](C)Nc2ccccc2C(=O)O)c2nc(N3CC4(CCC4(F)F)C3)c(C)c(=O)n2c1 [Example 11-201, (R)-2-((1-(2-(5,5-difluoro-2-azaspiro[3.3]heptan-2-yl)-3,7-dimethyl-4-oxo-4H-pyrido[1,2-a]pyrimidin-9-yl)ethyl)amino)benzoic acid]",117,> 10000,–,–
"Cc1cc([C@@H](C)Nc2ccccc2C(=O)O)c2nc(N3CC4(C3)CC(F)(F)C4)c(C)c(=O)n2c1 [Example 11-202, (R)-2-((1-(2-(6,6-difluoro-2-azaspiro[3.3]heptan-2-yl)-3,7-dimethyl-4-oxo-4H-pyrido[1,2-a]pyrimidin-9-yl)ethyl)amino)benzoic acid]",304,> 10000,–,–
